Values quoted from earlier work in patent publication EP2637636B1, “LEAVE-ON NONSOLID SKIN CONDITIONING COMPOSITIONS CONTAINING 12-HYDROXYSTEARIC ACID” (Unilever PLC, priority 2010, dated 2012).

conditions: surfactants used in the Examples

Compound | HLB
CCCCCCCCCCCCNC(=O)[C@H](O)[C@@H](O)[C@H](O[C@@H]1O[C@H](CO)[C@H](O)[C@H](O)[C@H]1O)[C@H](O)CO [C12 lactobionamide] | > 7
Glyceryl hydroxystearate | about 5
Hexadecyl n-methyl glucamide | > 7
Sorbitan Monostearate [Span 60] | 4.7
